{
  "source": "patent US10550105B2",
  "about": "(Ribon Therapeutics Inc., priority 2018, dated 2020)",
  "data": [
    {"molecular_target": "PARP7 (Homo sapiens (Human), UniProt Q7Z3E1)", "sequence (Q7Z3E1 whole entry)": "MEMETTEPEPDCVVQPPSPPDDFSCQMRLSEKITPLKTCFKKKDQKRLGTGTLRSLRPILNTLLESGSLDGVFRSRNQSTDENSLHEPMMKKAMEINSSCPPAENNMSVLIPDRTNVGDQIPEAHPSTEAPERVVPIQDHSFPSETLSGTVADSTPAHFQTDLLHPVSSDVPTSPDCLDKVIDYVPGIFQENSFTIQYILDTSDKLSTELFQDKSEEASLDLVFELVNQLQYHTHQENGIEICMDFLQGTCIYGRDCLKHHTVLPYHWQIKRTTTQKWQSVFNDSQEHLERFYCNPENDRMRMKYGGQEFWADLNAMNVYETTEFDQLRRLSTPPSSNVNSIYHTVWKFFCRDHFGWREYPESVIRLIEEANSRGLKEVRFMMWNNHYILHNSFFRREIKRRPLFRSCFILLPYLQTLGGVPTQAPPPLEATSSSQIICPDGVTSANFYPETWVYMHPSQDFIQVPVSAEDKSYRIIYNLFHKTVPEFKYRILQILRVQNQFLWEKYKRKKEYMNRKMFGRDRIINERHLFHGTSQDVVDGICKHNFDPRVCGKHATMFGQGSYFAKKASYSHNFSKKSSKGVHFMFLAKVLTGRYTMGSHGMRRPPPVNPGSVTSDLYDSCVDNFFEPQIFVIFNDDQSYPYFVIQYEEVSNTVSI", "test": "Enzymatic assay for inhibition of PARP7: TR-FRET displacement of biotinylated Probe A from the TIPARP active site", "format": "binding", "conditions": "Table A-1", "in_short": "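Compounds were tested as dose-response series, and reactions were incubated a further 30 min at 25° C. TR-FRET was read at 320 nm excitation with 615 and 665 nm emission after a 90 μs delay. The 665/615 ratio gave the TIPARP–Probe A complex, and % inhibition was fitted against concentration.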", "units": {"IC50": "nM"}, "values": [
      {"compound": "O=C(CCOC[C@@H]1c2ccccc2CN1c1cn[nH]c(=O)c1Cl)N1CCN(c2ncc(C(F)(F)F)cn2)CC1", "note": "[Example 415, (S)-4-Chloro-5-(1-((3-oxo-3-(4-(5-(trifluoromethyl)pyrimidin-2-yl)piperazin-1-yl)propoxy)methyl)isoindolin-2-yl)pyridazin-3(2H)-one]", "IC50": "< 100"},
      {"compound": "N#Cc1ccc(N2CC3(CN(C(=O)CCOC[C@@H]4CCCN4c4cn[nH]c(=O)c4C(F)(F)F)C3)C2)nc1", "note": "[Example 108, 6-[6-(3-[[(2S)-1-[6-oxo-5-(trifluoromethyl)-1,6-dihydropyridazin-4-yl]pyrrolidin-2-yl]methoxy]propanoyl)-2,6-diazaspiro [3.3]heptan-2-yl]pyridine-3-carbonitrile]", "IC50": "100 to 1000"},
      {"compound": "C[C@H](CC(=O)N1CCN(c2ccc(C#N)cn2)CC1)OC[C@@H]1CCCN1c1cn[nH]c(=O)c1C(F)(F)F", "note": "[Example 123A, 6-[4-[(3R)-3-[[(2S)-1-[6-oxo-5-(trifluoromethyl)-1,6-dihydropyridazin-4-yl]pyrrolidin-2-yl]methoxy]butanoyl]piperazin-1-yl]pyridine-3-carbonitrile]", "IC50": "< 100"},
      {"compound": "N#Cc1ccc(OC2CCC(NC(=O)CCOC[C@@H]3CCCN3c3cn[nH]c(=O)c3C(F)(F)F)CC2)nc1", "note": "(stereo partly drawn) [Example 99, N-(4-[(5-cyanopyridin-2-yl)oxy]cyclohexyl]-3-[[(2S)-1-[6-oxo-5-(trifluoromethyl)-1,6-dihydropyridazin-4-yl]pyrrolidin-2-yl]methoxy]propanamide]", "IC50": "100 to 1000"},
      {"compound": "C[C@@H](COCCC(=O)N1CCN(c2cnc(C(F)(F)F)s2)CC1)Nc1cn[nH]c(=O)c1C(F)(F)F", "note": "[Example 709, (S)-5-((1-(3-Oxo-3-(4-(2-(trifluoromethyl)thiazol-5-yl)piperazin-1-yl)propoxy)propan-2-yl)amino)-4-(trifluoromethyl)pyridazin-3(2H)-one]", "IC50": "< 100"},
      {"compound": "N#Cc1ccc(N2CCN(C(=O)c3cccc(OCC4c5ccccc5CN4c4cn[nH]c(=O)c4C(F)(F)F)c3)CC2)nc1", "note": "(centres unmarked) [Example 340, 6-(4-(3-((2-(6-Oxo-5-(trifluoromethyl)-1,6-dihydropyridazin-4-yl)isoindolin-1-yl)methoxy)benzoyl)piperazin-1-yl)nicotinonitrile]", "IC50": "< 100"},
      {"compound": "C[C@@H](COc1cn[nH]c(=O)c1C(F)(F)F)OCCC(=O)N1CCN(c2ncc(Cl)cn2)CC1", "note": "(single isomer, unassigned) [Example 543 Isomer B]", "IC50": "< 100"},
      {"compound": "N#Cc1ccc(N2CCN(C(=O)c3ccc(OC[C@@H]4c5ccccc5CN4c4cn[nH]c(=O)c4C(F)(F)F)cc3)CC2)nc1", "note": "(single isomer, unassigned) [Example 35 Isomer A]", "IC50": "≥ 1000"},
      {"compound": "N#Cc1ccc(N2CCN(C(=O)CCOCC3c4ncccc4CN3c3cn[nH]c(=O)c3C(F)(F)F)CC2)nc1", "note": "(centres unmarked) [Example 412, 6-(4-(3-((6-(6-Oxo-5-(trifluoromethyl)-1,6-dihydropyridazin-4-yl)-6,7-dihydro-5H-pyrrolo[3,4-b]pyridin-7-yl)methoxy)propanoyl)piperazin-1-yl)nicotinonitrile]", "IC50": "< 100"},
      {"compound": "N#Cc1ccc(N2CCN(C(=O)CCOC[C@@H]3c4ccccc4CN3c3cn[nH]c(=O)c3Cl)CC2)nc1", "note": "[Example 413, (S)-6-(4-(3-((2-(5-Chloro-6-oxo-1,6-dihydropyridazin-4-yl)isoindolin-1-yl)methoxy)propanoyl)piperazin-1-yl)nicotinonitrile]", "IC50": "< 100"},
      {"compound": "N#Cc1ccc(N2CCN(C(=O)C[C@@H]3CC[C@H](CNc4cn[nH]c(=O)c4C(F)(F)F)O3)CC2)nc1", "note": "[Example 581 Isomer D, 6-(4-[2-[(2S,5R)-5-([[6-oxo-5-(trifluoromethyl)-1,6-dihydropyridazin-4-yl]amino]methyl)oxolan-2-yl]acetyl]piperazin-1-yl)pyridine-3-carbonitrile]", "IC50": "< 100"}
    ]}
  ]
}
